# Test results: patent US20260092054A1, “FUSED RING COMPOUND AND PHARMACEUTICAL CONTAINING SAME” (KAKEN PHARMACEUTICAL CO., LTD., priority 2022, published 2026)
# Experiments:
# [1] = molecular target: T1, human STAT6/pIL-4Rα (Homo sapiens, UniProt P42226); experiment: Binding inhibitory activity between human STAT6/pIL-4Rα by fluorescence polarization method; settings: rhSTAT6 (123-658) / FAM-pIL-4Rα peptide
# T1 construct: histidine tag
# T1 sequence (P42226 123-658): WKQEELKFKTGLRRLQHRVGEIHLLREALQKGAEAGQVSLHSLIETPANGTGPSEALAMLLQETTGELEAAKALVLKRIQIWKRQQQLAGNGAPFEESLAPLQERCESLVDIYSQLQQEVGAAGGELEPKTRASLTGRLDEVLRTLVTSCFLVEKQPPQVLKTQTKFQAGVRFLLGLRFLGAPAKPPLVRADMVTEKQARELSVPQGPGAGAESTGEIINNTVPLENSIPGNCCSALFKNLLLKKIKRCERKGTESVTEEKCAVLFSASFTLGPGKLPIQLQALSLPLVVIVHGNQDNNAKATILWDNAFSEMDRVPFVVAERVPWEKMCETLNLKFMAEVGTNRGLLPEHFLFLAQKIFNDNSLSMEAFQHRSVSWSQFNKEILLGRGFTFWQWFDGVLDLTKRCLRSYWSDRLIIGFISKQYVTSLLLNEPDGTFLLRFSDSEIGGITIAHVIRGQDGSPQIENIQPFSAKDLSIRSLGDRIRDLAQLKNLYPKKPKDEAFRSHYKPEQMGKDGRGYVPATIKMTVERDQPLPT
# How it was run: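 His-tagged human STAT6 (residues 123–658, E. coli-expressed) was preincubated with compound for 30 min at RT in the dark, in buffer e.g. 50 mM NaCl, 10 mM HEPES pH 7.0, 1 mM DTT, 1 mM EDTA, 0.01% NP-40. FAM-pIL-4Rα peptide was then added for 30 min. Fluorescence polarisation was read at 485/535 nm, with IC50 interpolated linearly between two points flanking 50%.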
# [2] = tested on: human STAT6; experiment: Human STAT6 dependent reporter activity (IL-4 stimulated STAT6 reporter assay using STAT6-HEK293 cells); assay type: cell-based; settings: Homo sapiens, IL-4 stimulation, luciferase activity, read-out: Inhibition rate (%); for inhibition at 0.1 µM: compound 0.1 μmol/L; for inhibition at 1 µM: compound 1 μmol/L
smiles,measurement,setting,value
CCn1c(-c2ccc(N3C(=O)C(C)CC3C)cc2)cc2cccc(C(=O)Nc3ccc(F)c(C(N)=O)c3)c21 (centres unmarked) [Ex. 158],IC50,[1],730 nM
same,inhibition at 0.1 µM,[2],44%
same,inhibition at 1 µM,[2],96%
CCn1c(-c2ccc(N3C(=O)C(C)CC3C)cc2)cc2cc(C(F)(F)F)cc(C(=O)Nc3cccc(C(N)=O)c3)c21 (centres unmarked) [Ex. 159],IC50,[1],530 nM
same,inhibition at 0.1 µM,[2],50%
same,inhibition at 1 µM,[2],95%
CCn1c(-c2ccc(N3C(=O)C(C)CC3C)cc2)cc2cc(C(F)(F)F)cc(C(=O)Nc3ccc(F)c(C(N)=O)c3)c21 (centres unmarked) [Ex. 160],IC50,[1],410 nM
same,inhibition at 0.1 µM,[2],93%
same,inhibition at 1 µM,[2],100%
CCn1c(-c2ccc(N3C(=O)C(C)CC3C)cc2)cc2cc(C(F)(F)F)cc(C(=O)Nc3cccc(C(N)=O)c3F)c21 (centres unmarked) [Ex. 161],IC50,[1],870 nM
same,inhibition at 0.1 µM,[2],86%
same,inhibition at 1 µM,[2],99%
COCCn1c(-c2ccc(-n3c(C)nn(C)c3=O)cc2)cc2cc(C(F)(F)F)cc(C(=O)Nc3cccc(C(=O)Nc4cc[nH]n4)c3)c21 [Ex. 163],IC50,[1],270 nM
same,inhibition at 0.1 µM,[2],60%
same,inhibition at 1 µM,[2],99%
CCn1c(-c2ccc(-n3c(C)nn(C)c3=O)cc2)cc2ccnc(C(=O)Nc3cccc(C(=O)Nc4cc(C)cn(C)c4=O)c3)c21 [Ex. 165],IC50,[1],200 nM
same,inhibition at 0.1 µM,[2],86%
same,inhibition at 1 µM,[2],100%
CCn1c(-c2ccc(-n3c(C)nn(C)c3=O)cc2)cc2ccnc(C(=O)Nc3cccc(C(=O)Nc4cn(C)c(=O)n(C)c4=O)c3)c21 [Ex. 166],IC50,[1],350 nM
same,inhibition at 0.1 µM,[2],76%
same,inhibition at 1 µM,[2],99%
CCn1c(-c2ccc(-n3c(C)nn(C)c3=O)cc2)cc2ccnc(C(=O)Nc3cccc(C(=O)Nc4cncn(C)c4=O)c3)c21 [Ex. 167],IC50,[1],240 nM
same,inhibition at 0.1 µM,[2],90%
same,inhibition at 1 µM,[2],99%
CCn1c(-c2ccc(-n3c(C)nn(C)c3=O)cc2)cc2ccnc(C(=O)Nc3ccc(F)c(C(=O)NCC#N)c3)c21 [Ex. 168],IC50,[1],350 nM
same,inhibition at 0.1 µM,[2],60%
same,inhibition at 1 µM,[2],99%
CCn1c(-c2ccc(-n3c(C)nn(C)c3=O)cc2)cc2ccnc(C(=O)Nc3cccc(C(=O)Nc4cccn(C)c4=O)c3)c21 [Ex. 169],IC50,[1],400 nM
same,inhibition at 0.1 µM,[2],81%
same,inhibition at 1 µM,[2],99%
CCn1c(-c2ccc(-n3c(C)nn(C)c3=O)cc2)cc2cc(C(F)(F)F)cc(C(=O)Nc3cccc(C(=O)NCC(=O)N(C)C)c3)c21 [Ex. 170],IC50,[1],400 nM
same,inhibition at 0.1 µM,[2],49%
same,inhibition at 1 µM,[2],99%
COCCn1c(-c2ccc(-n3c(C)nn(C)c3=O)cc2)cc2cc(C(F)(F)F)cc(C(=O)Nc3cccc(C(N)=O)n3)c21 [Ex. 171],IC50,[1],330 nM
same,inhibition at 0.1 µM,[2],29%
same,inhibition at 1 µM,[2],95%
CNC(=O)c1cccc(NC(=O)c2cc(C(F)(F)F)cc3cc(-c4ccc(-n5c(C)nn(C)c5=O)cc4)n(CCOC)c23)n1 [Ex. 172],IC50,[1],380 nM
same,inhibition at 0.1 µM,[2],17%
same,inhibition at 1 µM,[2],83%
COCCn1c(-c2ccc(-n3c(C)nn(C)c3=O)cc2)cc2cc(C(F)(F)F)cc(C(=O)Nc3cccc(C(=O)Nc4cccc(OC)n4)c3)c21 [Ex. 173],IC50,[1],340 nM
same,inhibition at 0.1 µM,[2],43%
same,inhibition at 1 µM,[2],100%
COCCn1c(-c2ccc(-n3c(C)nn(C)c3=O)cc2)cc2cc(C(F)(F)F)cc(C(=O)Nc3cccc(C(=O)Nc4cccc(COC)n4)c3)c21 [Ex. 174],IC50,[1],680 nM
same,inhibition at 0.1 µM,[2],70%
COCCn1c(-c2ccc(-n3c(C)nn(C)c3=O)cc2)cc2cc(C(F)(F)F)cc(C(=O)Nc3cccc(C(=O)Nc4cccn(C)c4=O)c3)c21 [Ex. 175],IC50,[1],400 nM
same,inhibition at 0.1 µM,[2],65%
COCCn1c(-c2ccc(-n3c(C)nn(C)c3=O)cc2)cc2cc(C(F)(F)F)cc(C(=O)Nc3cccc(C(=O)Nc4cc(Cl)n(C)n4)c3)c21 [Ex. 176],IC50,[1],280 nM
same,inhibition at 0.1 µM,[2],93%
CCn1ccc(NC(=O)c2cccc(NC(=O)c3cc(C(F)(F)F)cc4cc(-c5ccc(-n6c(C)nn(C)c6=O)cc5)n(CCOC)c34)c2)n1 [Ex. 177],IC50,[1],300 nM
same,inhibition at 0.1 µM,[2],99%
COCCn1c(-c2ccc(-n3c(C)nn(C)c3=O)cc2)cc2cc(C(F)(F)F)cc(C(=O)Nc3cccc(C(=O)Nc4ccn(C5CC5)n4)c3)c21 [Ex. 178],IC50,[1],280 nM
same,inhibition at 0.1 µM,[2],100%
COCCn1c(-c2ccc(-n3c(C)nn(C)c3=O)cc2)cc2cc(C(F)(F)F)cc(C(=O)Nc3cccc(C(=O)Nc4cc(C#N)n(C)n4)c3)c21 [Ex. 179],IC50,[1],320 nM
same,inhibition at 0.1 µM,[2],93%
COCCn1c(-c2ccc(-n3c(C)nn(C)c3=O)cc2)cc2cc(C(F)(F)F)cc(C(=O)Nc3cccc(C(=O)Nc4ccn(CC5CC5)n4)c3)c21 [Ex. 180],IC50,[1],300 nM
same,inhibition at 0.1 µM,[2],100%
COCCn1c(-c2ccc(-n3c(C)nn(C)c3=O)cc2)cc2cc(C(F)(F)F)cc(C(=O)Nc3cccc(C(=O)Nc4ccn(CC(=O)OC)n4)c3)c21 [Ex. 181],IC50,[1],310 nM
same,inhibition at 0.1 µM,[2],94%
COCCn1c(-c2ccc(-n3c(C)nn(C)c3=O)cc2)cc2cc(C(F)(F)F)cc(C(=O)Nc3cccc(C(=O)Nc4ccc(C)nn4)c3)c21 [Ex. 182],IC50,[1],350 nM
same,inhibition at 0.1 µM,[2],52%
same,inhibition at 1 µM,[2],100%
COCCn1c(-c2ccc(-n3c(C)nn(C)c3=O)cc2)cc2cc(C(F)(F)F)cc(C(=O)Nc3cccc(C(=O)Nc4ccn(CC#N)n4)c3)c21 [Ex. 183],IC50,[1],230 nM
same,inhibition at 0.1 µM,[2],86%
CCn1c(-c2ccc(-n3c(C)nn(C)c3=O)cc2)cc2ccnc(C(=O)Nc3ccc(F)c(C(=O)Nc4cc[nH]n4)c3)c21 [Ex. 185],IC50,[1],470 nM
same,inhibition at 0.1 µM,[2],34%
same,inhibition at 1 µM,[2],96%
CCn1c(-c2ccc(-n3c(C)nn(C)c3=O)cc2)cc2ccnc(C(=O)Nc3cccc(C(=O)Nc4cccn(C(F)F)c4=O)c3)c21 [Ex. 186],IC50,[1],330 nM
same,inhibition at 0.1 µM,[2],43%
same,inhibition at 1 µM,[2],96%
CCn1c(-c2ccc(-n3c(C)nn(C)c3=O)cc2)cc2ccnc(C(=O)Nc3cccc(C(=O)Nc4ccc(C)n(C)c4=O)c3)c21 [Ex. 187],IC50,[1],340 nM
same,inhibition at 0.1 µM,[2],88%
CCn1c(-c2ccc(-n3c(C)nn(C)c3=O)cc2)cc2ccnc(C(=O)Nc3cccc(C(=O)Nc4c(C)ccn(C)c4=O)c3)c21 [Ex. 188],IC50,[1],320 nM
same,inhibition at 0.1 µM,[2],44%
same,inhibition at 1 µM,[2],97%
CCn1c(-c2ccc(-n3c(C)nn(C)c3=O)cc2)cc2ccnc(C(=O)Nc3cccc(C(=O)NCC#N)c3)c21 [Ex. 189],IC50,[1],380 nM
same,inhibition at 0.1 µM,[2],72%
same,inhibition at 1 µM,[2],97%
CCn1c(-c2ccc(-n3c(C)nn(C)c3=O)cc2)cc2ccnc(C(=O)Nc3cccc(C(=O)NCC#N)c3F)c21 [Ex. 190],IC50,[1],410 nM
same,inhibition at 0.1 µM,[2],66%
same,inhibition at 1 µM,[2],97%
CCn1c(-c2ccc(-n3c(C)nn(C)c3=O)cc2)cc2ccnc(C(=O)Nc3ccc(F)c(C(=O)Nc4cn(C)c(=O)n(C)c4=O)c3)c21 [Ex. 191],IC50,[1],290 nM
same,inhibition at 0.1 µM,[2],63%
CCn1c(-c2ccc(-n3c(C)nn(C)c3=O)cc2)cc2ccnc(C(=O)Nc3ccc(F)c(C(=O)Nc4cncn(C)c4=O)c3)c21 [Ex. 192],IC50,[1],340 nM
same,inhibition at 0.1 µM,[2],71%
CCn1c(-c2ccc(-n3c(C)nn(C)c3=O)cc2)cc2ccnc(C(=O)Nc3cccc(C(=O)Nc4cncn(C)c4=O)c3F)c21 [Ex. 193],IC50,[1],420 nM
same,inhibition at 0.1 µM,[2],67%
same,inhibition at 1 µM,[2],98%
CCn1c(-c2ccc(-n3c(C)nn(C)c3=O)cc2)cc2ccnc(C(=O)Nc3ccc(F)c(C(=O)Nc4cc(C)cn(C)c4=O)c3)c21 [Ex. 194],IC50,[1],420 nM
same,inhibition at 0.1 µM,[2],68%
same,inhibition at 1 µM,[2],98%
CCn1c(-c2ccc(-n3c(C)nn(C)c3=O)cc2)cc2ccnc(C(=O)Nc3ccc(F)c(C(=O)Nc4ccc(C)n(C)c4=O)c3)c21 [Ex. 195],IC50,[1],290 nM
same,inhibition at 0.1 µM,[2],56%
